Holding throughout (assay): NCI tumour cell line growth inhibition, 48 h
In assay [1] the test system is IGROV1 ovarian.
The subject of assay [2] is HCT-116 colon.
For assay [3], the system named is CCRF-CEM leukemia.
Assay [4] has as its system SK-MEL-28 melanoma.
Assay [5] has as its system K-562 leukemia.
Assay [6] deals with EKVX NSCLC.
For assay [7], the system named is CAKI-1 renal.
The test system of assay [8] is HT29 colon.
Assay [9] deals with SF-295 CNS.
Assay [10] has as its system MOLT-4 leukemia.

Values after ≈ are worked out from the molar mass of the structure shown.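 Where inhibition never reached the appropriate level, the endpoint shown equals the highest concentration tested. Otherwise, values were interpolated linearly from a five-concentration, 48-hour dose response in 96-well plates. The concentration for 50% growth inhibition is given as GI50. TGI is the concentration that stops growth completely.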

Take `O=C1CCCCC2N(C(c3ccccc3)c3ccccc3)CC[C@@]12c1ccccc1` (mixture of isomers): the TGI in assay [1], in assay [2], in [3], in assay [4], in assay [5] and in assay [6] was greater than 10 µM in each case. Also, the TGI in assay [7], in assay [8], in [9] and in assay [10] was greater than 10 µM throughout.
With `C=C(C)C(=O)OC1CCC2(C)C(CCC3C2CCC2(C)C(c4ccc(=O)oc4)CC4OC432)C1` (stereo not drawn), the TGI came to 20.5 µM in assay [1]; 19 µM in assay [2]; 15.3 µM in [3]; 44.5 µM in [4]; 32.9 µM in assay [5]; 11 µM in assay [6]. In addition, the TGI in assay [7] came to 15 µM; in assay [8] it was 52 µM; in assay [9], 23.1 µM; in assay [10], 15.5 µM.
Regarding `Cc1cc(O)c(C(C)(C)C)cc1Sc1cc(C(C)(C)C)c(O)cc1C`, the GI50 in [1] was 2.98 µM; in assay [3], 2.95 µM; in assay [4] it was 1.63 µM; in [5] it was 1.95 µM; in assay [6], 2.93 µM; in assay [7], 2.07 µM. The GI50 in assay [8] is 2.34 µM; in [9], 2.32 µM; in assay [10] it was 2.67 µM. For the same compound, the TGI amounted to 12.5 µM in assay [1]; 14.5 µM in [3]; 3.09 µM in [4]; 5.4 µM in assay [5]; 11.6 µM in assay [6]; 6.62 µM in [7]. Moreover, the figures for the TGI in assay [8], in assay [9] and in assay [10] were 4.47 µM, 5.61 µM and 8.07 µM, respectively.
As for `N#Cc1c(Cl)c2cc([N+](=O)[O-])ccc2n2c1nc1ccccc12`, the TGI was greater than 100 µM in assay [2]; 4.27 µM in assay [3]; 30 µM in assay [4]; greater than 36.7 µM in [5]; 34.2 µM in assay [6]; 4.78 µM in assay [7]. In addition, the TGI turned out to be 18.4 µM in assay [8] and 62.4 µM in [9].
`CCOC(=O)CN=C1NNS(=O)(=O)c2ccccc21`: the TGI in assay [1], in assay [2], in assay [3], in assay [4], in [5] and in assay [6] was greater than 100 µM in each case. Besides, the TGI in assay [7], in [8], in assay [9] and in assay [10] was greater than 100 µM each time.
On to `Clc1ccccc1/C=C/c1cscn1`, for which the TGI in assay [2], in [3], in [4], in assay [5], in [6] and in [8] was greater than 100 µM each time. In assay [10], this compound came in with a TGI greater than 100 µM.
As to `NCCCCC(N)C(=O)NCCNc1ccc(NCCNC(=O)C(N)CCCCN)c2c1C(=O)c1ccccc1C2=O` (stereo not drawn), the TGI in [1], in assay [2], in assay [3], in assay [4], in assay [5] and in assay [6] was greater than 100 µM throughout. Besides, the TGI in [7], in assay [8], in assay [9] and in assay [10] was greater than 100 µM in each case.
Turning to `O=C(O)Cc1cc(O)c(CC(=O)O)cc1O`, the TGI in [1], in [2], in [4], in [5], in assay [6] and in [7] was greater than 100 µM each time. Besides, the TGI in assay [8], in assay [9] and in assay [10] was greater than 100 µM each time.
For the compound `CCOC(=O)C(O)(NC(=O)c1ccc(F)cc1)C(F)(F)F` (stereo not drawn), the TGI in assay [1], in assay [2], in assay [3], in [4], in [5] and in [6] was greater than 100 µM throughout. Also, the TGI in assay [7], in assay [8], in [9] and in assay [10] was greater than 100 µM each time.
`O=C1NN(C2=NNC3(C(=O)N2)c2ccccc2-c2ccccc23)C(c2ccccc2)=N/C1=C/c1ccc(O)cc1`: the GI50 was 15 µg/mL in assay [1]; 103 µg/mL (≈ 196 µM) in assay [2]; 46.4 µg/mL in [3]; 83 µg/mL in assay [4]; 35.8 µg/mL in assay [5]; 47.4 µg/mL in assay [6]. In addition, the GI50 in [7] is 64.2 µg/mL; in assay [8] it was greater than 150 µg/mL; in assay [9] it was 56.9 µg/mL; in assay [10], 15 µg/mL. The TGI is 15 µg/mL in assay [1]; greater than 150 µg/mL in assay [2]; greater than 150 µg/mL in [3]; greater than 150 µg/mL in assay [4]; greater than 150 µg/mL in assay [5]; greater than 150 µg/mL in assay [6]. Moreover, the TGI is greater than 150 µg/mL in assay [7], greater than 150 µg/mL in assay [8], greater than 150 µg/mL in assay [9] and 15 µg/mL in assay [10].
On to `C=CC1(C)CCC2=C(CCC3C(C)(C(=O)OC)CCCC23C)C1=O` (stereo not drawn), for which the TGI was 37.1 µM in assay [1]; 31.1 µM in assay [2]; 68 µM in assay [3]; greater than 100 µM in assay [5]; 32.8 µM in assay [6]; 87.1 µM in assay [7]. Also, the TGI in assay [8] came out at 31.2 µM; in assay [9], 72.5 µM.
In the case of `Cn1c(=O)c2[nH]c(CCCCC(=O)O)nc2n(C)c1=O`, the TGI in [1], in assay [2], in assay [3], in assay [4], in assay [6] and in assay [7] was greater than 100 µM throughout. Also, the TGI in [8], in [9] and in [10] was greater than 100 µM throughout.
For the compound `O=C(N/N=C\c1cccc(O)c1)c1ccncc1`, the TGI in [1], in assay [2], in assay [4], in assay [5], in assay [6] and in assay [7] was greater than 100 µM throughout. Further, the TGI in assay [8], in assay [9] and in [10] was greater than 100 µM each time.
`Cc1nc2ccccc2n1C(=O)c1c(F)c(F)c(F)c(F)c1F`: the TGI was 44.8 µM in [1]; 21.8 µM in assay [2]; greater than 100 µM in [3]; 82.9 µM in assay [4]; greater than 100 µM in assay [5]; greater than 100 µM in [6]. Also, the TGI in assay [7] is 48.9 µM; in assay [8] it was 27.5 µM; in assay [9] it was greater than 100 µM; in [10] it was 27.1 µM.

(Values after PubChem BioAssay (NCI).)
